# Laboratory results published in patent US20260355180A1, “COMPOSITIONS AND METHODS FOR SPLICEOSOME-TARGETED THERAPIES” (Institute for Cancer Research d/b/a The Research Institute …, priority 2022, published 2026).
# “Also recorded” adds a separate entry of the source.
# Experiments:
# [1] = test system: H446 SCLC cells; assay: Cell survival after PlaB treatment, H446; type: cell-based, human
# Protocol: FIG. 2A) SCLC cell lines (H446 and H82) and immortalized fibroblasts (FC1010 and HS68) cell survival curves after 72 hours of PlaB treatment. FIG. 2B) RIPK1 depletion rescues H82 and H446 cell survival after 18 hours of PlaB treatment. FIG. 2C) Western blot showing RIPK1 protein depletion. Mean±SEM, Welch's t test *p<0.05, **p<0.01.
# Cancer deregulates splicing^31,32, and we hypothesized that hyper-proliferative SCLCs are dependent on splicing machineries for increased tumorigenicity^90.
# [2] = test system: MEF Flag-ZBP1 cells; assay: A-RNA and Z-NA accumulation in MEF Flag-ZBP1; type: cell-based, mouse; conditions: SF3B1 inhibition
structure (smiles),measurement,setting,value
"CCC(O)C(C)C1OC1CC(C)C=CC=C(C)C1OC(=O)CC(O)CCC(C)(O)C(OC(C)=O)C=CC1C (stereo not drawn) [PlaB, Pladienolide B]",cell survival,"[1]; 72 hours of PlaB, H446",drastically reduces cell survival; also recorded: dramatically reduces SCLC cell survival
same,sensitivity to SF3B1 inhibition,[1]; nanomolar concentration of PlaB,particularly sensitive
same,A-RNA and Z-NA accumulation,[2],accumulation
